Measurements: US20130001162A1, “Apparatus, System, and Method for Forward Osmosis in Water Reuse” (priority 2011, published 2013)

assay: Rejection of micropollutants by low pressure reverse osmosis (LPRO), diluted DS as feed; settings: permeate of LPRO at 15 bar

concentration, Permeate LPRO	Compound
<0.5 ng/mL	C1COCCO1 [1,4-dioxane]
<0.001 ng/mL	C#C[C@]1(O)CC[C@H]2[C@@H]3CCc4cc(O)ccc4[C@H]3CC[C@@]21C [17α-ethynilestradiol]
0.31 ng/mL	CC(=O)Nc1ccc(O)cc1 [Acetaminophen]
0.02 ng/mL	NC(=O)N1c2ccccc2C=Cc2ccccc21 [Carbamazepine]
<0.01 ng/mL	CC(C(=O)O)c1cccc(Oc2ccccc2)c1 (stereo not drawn) [Fenoprofen]
<0.01 ng/mL	Cc1ccc(C)c(OCCCC(C)(C)C(=O)O)c1 [Gemfibrozil]
<0.01 ng/mL	CC(C(=O)O)c1cccc(C(=O)c2ccccc2)c1 (stereo not drawn) [Ketoprofen]
0.08 ng/mL	Cc1ncc([N+](=O)[O-])n1CCO [Metronidazole]

Compound	concentration, Permeate LPRO
CC(C)(c1ccc(O)cc1)c1ccc(O)cc1 [Bisphenol A]	0.058 ng/mL
Cn1c(=O)c2c(ncn2C)n(C)c1=O [Caffeine]	0.03 ng/mL

assay: not given; settings: stated with the literature report; cited from earlier work

Compound	log D
C[C@]12CC[C@@H]3c4ccc(O)cc4CC[C@H]3[C@@H]1CC[C@@H]2O [estradiol]	3.94
C[C@]12CC[C@@H]3c4ccc(O)cc4CC[C@H]3[C@@H]1CCC2=O [estrone]	3.46
